Activity calls are given as the source filed them. No cut-off for these calls is given here.
Columns and labels:
[1] = target: Tumour suppressor p53/oncoprotein Mdm2 (Homo sapiens, UniProt Q00987); test: Inhibition of p53-MDM2 interaction by ELISA; type: protein assay
[2] = tested on: SJSA-1; test: Increase of p21 protein level in SJSA cell line by Western blot analysis; type: functional, cell-based; conditions: Homo sapiens
[3] = tested on: SJSA-1; test: Increase of p53 protein level in SJSA cell line by Western blot analysis; type: functional, cell-based; conditions: Homo sapiens
[4] = tested on: SJSA-1; test: Increase of MDM2 protein level in SJSA cell line by Western blot analysis; type: functional, cell-based; conditions: Homo sapiens
[5] = target: Tumour suppressor p53/oncoprotein Mdm2 (Homo sapiens) (UniProt P04637+Q00987); test: Induction of p53 dependent transcription in SJSA cell line by reporter gene assay; type: functional, cell-based; conditions: SJSA-1
Chain of Tumour suppressor p53/oncoprotein Mdm2 (Homo sapiens) (P04637 whole entry, looked up): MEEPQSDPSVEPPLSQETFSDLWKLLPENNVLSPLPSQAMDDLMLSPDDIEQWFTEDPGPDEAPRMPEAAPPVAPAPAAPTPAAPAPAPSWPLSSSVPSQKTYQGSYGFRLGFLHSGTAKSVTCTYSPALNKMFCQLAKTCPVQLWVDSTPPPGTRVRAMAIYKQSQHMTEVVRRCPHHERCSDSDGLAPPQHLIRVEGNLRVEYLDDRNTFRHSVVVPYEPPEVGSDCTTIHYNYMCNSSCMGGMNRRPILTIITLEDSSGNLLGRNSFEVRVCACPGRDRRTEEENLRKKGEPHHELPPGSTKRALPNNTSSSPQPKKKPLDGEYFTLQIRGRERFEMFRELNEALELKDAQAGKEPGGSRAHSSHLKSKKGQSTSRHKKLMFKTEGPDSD
Chain of Tumour suppressor p53/oncoprotein Mdm2 (Homo sapiens) (Q00987 whole entry, looked up): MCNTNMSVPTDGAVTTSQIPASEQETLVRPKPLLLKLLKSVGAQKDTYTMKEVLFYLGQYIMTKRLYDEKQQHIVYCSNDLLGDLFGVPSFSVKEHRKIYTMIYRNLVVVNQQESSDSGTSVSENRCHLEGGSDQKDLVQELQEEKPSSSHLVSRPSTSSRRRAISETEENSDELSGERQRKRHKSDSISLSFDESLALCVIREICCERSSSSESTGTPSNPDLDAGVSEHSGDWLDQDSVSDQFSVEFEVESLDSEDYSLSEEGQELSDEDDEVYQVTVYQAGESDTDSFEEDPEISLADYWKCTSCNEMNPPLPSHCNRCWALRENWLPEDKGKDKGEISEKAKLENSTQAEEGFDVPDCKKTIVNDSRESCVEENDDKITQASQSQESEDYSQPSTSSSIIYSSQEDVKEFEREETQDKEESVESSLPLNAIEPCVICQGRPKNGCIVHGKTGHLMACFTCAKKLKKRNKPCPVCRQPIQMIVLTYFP

Chain of Tumour suppressor p53/oncoprotein Mdm2 (P04637 whole entry): as the sequence (P04637 whole entry, looked up) above
Chain of Tumour suppressor p53/oncoprotein Mdm2 (Q00987 whole entry): as the sequence (Q00987 whole entry, looked up) above

For O=C1CCC(=O)N1CCOC1(c2ccccc2)c2ccccc2C(=O)N1Cc1ccccc1 (stereo unspecified), the IC50 [1] was 284 µM.

Compound CCCN1C(=O)c2ccccc2C1(OCc1cc([N+](=O)[O-])c(C)c([N+](=O)[O-])c1)c1ccc(OCOCC[Si](C)(C)C)cc1 (stereo unspecified) has an IC50 [1] of 103 µM.

In the case of O=C1c2ccccc2C(OCc2cccc([N+](=O)[O-])c2)(c2ccccc2)N1Cc1ccccc1 (stereo unspecified), the IC50 [1] is reported as 284 µM.

CN(CCOC1(c2ccccc2)c2ccccc2C(=O)N1Cc1ccccc1)c1ccc(C=O)cc1 (stereo unspecified) gave an IC50 [1] of 191 µM.

Cc1cccc(N(CCC#N)CCOC2(c3ccccc3)c3ccccc3C(=O)N2Cc2ccccc2)c1 (stereo unspecified) showed an IC50 [1] of 243 µM.

Work on C=CC(=O)OCCOC1(c2ccccc2)c2ccccc2C(=O)N1Cc1ccccc1 (stereo unspecified) yielded an IC50 [1] of 439 µM.

For O=C1c2ccccc2C(OCCN2CCOCC2)(c2ccccc2)N1Cc1ccccc1 (stereo unspecified), the IC50 [1] was greater than 500 µM.

CCCOC1(c2ccccc2)c2ccccc2C(=O)N1CCCC(OC)OC (stereo unspecified) gave an IC50 [1] of 70 µM.

Compound CCCOC1(c2ccccc2)c2ccccc2C(=O)N1CCO (stereo unspecified) has an IC50 [1] greater than 500 µM.

For C[Si](C)(C)CCOCOc1ccc(C2(OCCCO)c3ccccc3C(=O)N2Cc2ccccc2)cc1 (stereo unspecified), the IC50 [1] was 476 µM.

For O=C1c2ccccc2C(OCCS(=O)(=O)O)(c2ccccc2)N1Cc1ccccc1 (stereo unspecified), the IC50 [1] was 345 µM.

With O=C1c2ccccc2C(OCCCO)(c2ccc(Cl)cc2)N1Cc1ccccc1 (stereo unspecified) the Activity [2] was “Dose-dependent effect”, the Activity [3] was “inactive” and the Activity [4] was “Dose-dependent effect”. For the same compound, the Activity [5] was “Dose-dependent effect”.

Compound CCCNC1(c2ccccc2)c2ccccc2C(=O)N1Cc1ccccc1 (stereo unspecified) has an IC50 [1] of 200 µM.

In the case of O=C1c2ccccc2C(NCCO)(c2ccccc2)N1Cc1ccccc1 (stereo unspecified), the IC50 [1] is reported as greater than 500 µM.

For N#CCCNC1(c2ccccc2)c2ccccc2C(=O)N1Cc1ccccc1 (stereo unspecified), the IC50 [1] was 190 µM.

CCCOC1(c2ccccc2)c2ccccc2C(=O)N1[C@@H](CCCCN)C(=O)OC (stereo partly specified) showed an IC50 [1] of 79 µM.

O=C1c2ccccc2C(OCc2ccc(Cl)c([N+](=O)[O-])c2)(c2ccccc2)N1Cc1ccccc1 (stereo unspecified) was tested, and the IC50 [1] was 206 µM.

O=C1c2ccccc2C(OCc2ccco2)(c2ccccc2)N1Cc1ccccc1 (stereo unspecified) gave an IC50 [1] greater than 500 µM.

Work on CCCN1C(=O)c2ccccc2C1(OCCNC(=O)c1ccccc1O)c1ccc(C(C)(C)C)cc1 (stereo unspecified) yielded an IC50 [1] of 70.1 µM.

In the case of Cc1ccc([N+](=O)[O-])c(COC2(c3ccccc3)c3ccccc3C(=O)N2Cc2ccccc2)c1 (stereo unspecified), the IC50 [1] is reported as 232 µM.

CCCN1C(=O)c2ccccc2C1(OCc1cc(OC)c(O)c(OC)c1)c1ccc(Cl)cc1 (stereo unspecified) was tested, and the Activity [2] was “Dose-dependent effect”, the Activity [3] was “inactive” and the Activity [4] was “Dose-dependent effect”. For the same compound, the Activity [5] was “Dose-dependent effect”.

In the case of O=C1c2ccccc2C(NCC(O)c2ccc(O)cc2)(c2ccccc2)N1Cc1ccccc1 (stereo unspecified), the IC50 [1] is reported as 227 µM.

CC(=O)NCCOC1(c2ccccc2)c2ccccc2C(=O)N1Cc1ccccc1 (stereo unspecified) was tested, and the IC50 [1] was 281 µM.

Work on CCCOC1(c2ccccc2)c2ccccc2C(=O)N1[C@H](C(=O)OC)c1ccc(O)cc1 (stereo partly specified) yielded an IC50 [1] of 90 µM.

With COCCOC1(c2ccccc2)c2ccccc2C(=O)N1Cc1ccccc1 (stereo unspecified) the IC50 [1] was 490 µM.

O=C1c2ccccc2C(OC/C=C/c2ccccc2)(c2ccccc2)N1Cc1ccccc1 (stereo unspecified) was tested, and the IC50 [1] was 334 µM.

Compound O=C1CCCN1CCOC1(c2ccccc2)c2ccccc2C(=O)N1Cc1ccccc1 (stereo unspecified) has an IC50 [1] of 393 µM.

COC(=O)C(Cc1ccc(O)cc1)N1C(=O)c2ccccc2C1(OCCn1c([N+](=O)[O-])cnc1C)c1ccccc1 (stereo unspecified) showed an IC50 [1] of 275 µM.

With O=C(NCCOC1(c2ccccc2)c2ccccc2C(=O)N1Cc1ccccc1)c1ccc(O)cc1O (stereo unspecified) the IC50 [1] was 96 µM.

COC(=O)[C@@H](C)COC1(c2ccccc2)c2ccccc2C(=O)N1Cc1ccccc1 (stereo partly specified) was tested, and the IC50 [1] was 330 µM.

Work on O=C1c2ccccc2C(NCC(O)c2cccc(O)c2)(c2ccccc2)N1Cc1ccccc1 (stereo unspecified) yielded an IC50 [1] of 84 µM.

Compound C=CCNC(=S)NCCOC1(c2ccccc2)c2ccccc2C(=O)N1Cc1ccccc1 (stereo unspecified) has an IC50 [1] of 408 µM.

CCOC(=O)CCC(NC1(c2ccccc2)c2ccccc2C(=O)N1Cc1ccccc1)C(=O)OCC (stereo unspecified) showed an IC50 [1] greater than 500 µM.

Work on COC(=O)COC1(c2ccccc2)c2ccccc2C(=O)N1Cc1ccccc1 (stereo unspecified) yielded an IC50 [1] greater than 500 µM.

CCCOC1(c2ccccc2)c2ccccc2C(=O)N1Cc1ccccc1 (stereo unspecified) was tested, and the IC50 [1] was greater than 200 µM.

Work on COC(=O)CCNC1(c2ccccc2)c2ccccc2C(=O)N1Cc1ccccc1 (stereo unspecified) yielded an IC50 [1] greater than 500 µM.

In the case of O=C1c2ccccc2C(NC(CO)C(O)c2ccccc2)(c2ccccc2)N1Cc1ccccc1 (stereo unspecified), the IC50 [1] is reported as 85 µM.

For O=C1c2ccccc2C(OCCOc2ccccc2O)(c2ccccc2)N1Cc1ccccc1 (stereo unspecified), the IC50 [1] was 221 µM.

Compound O=C1c2ccccc2C(=O)N1CCOC1(c2ccccc2)c2ccccc2C(=O)N1Cc1ccccc1 (stereo unspecified) has an IC50 [1] of 152 µM.

Work on COc1ccc(CCOC2(c3ccccc3)c3ccccc3C(=O)N2Cc2ccccc2)cc1OC (stereo unspecified) yielded an IC50 [1] of 311 µM.

In the case of CCCOC1(c2ccccc2)c2ccccc2C(=O)N1Cc1ccc(OC)cc1 (stereo unspecified), the IC50 [1] is reported as 413 µM.

Work on O=C1c2ccccc2C(OCc2ccc(O)cc2)(c2ccccc2)N1Cc1ccccc1 (stereo unspecified) yielded an IC50 [1] of 79 µM.

In the case of CC(NC1(c2ccccc2)c2ccccc2C(=O)N1Cc1ccccc1)C(O)c1ccc(O)cc1 (stereo unspecified), the IC50 [1] is reported as 185 µM.

For COc1ccc([C@@H](O)COC2(c3ccccc3)c3ccccc3C(=O)N2Cc2ccco2)cc1 (stereo partly specified), the IC50 [1] was 181 µM.

CCCCc1ncc(COC2(c3ccccc3)c3ccccc3C(=O)N2Cc2ccccc2)[nH]1 (stereo unspecified) showed an IC50 [1] of 78 µM.

O=C1c2ccccc2C(OCCc2ccccc2)(c2ccccc2)N1Cc1ccccc1 (stereo unspecified) was tested, and the IC50 [1] was greater than 500 µM.

C=C(C)C(=O)OCCNC1(c2ccccc2)c2ccccc2C(=O)N1Cc1ccccc1 (stereo unspecified) gave an IC50 [1] of 353 µM.

O=C1c2ccccc2C(=O)N1CCCOC1(c2ccccc2)c2ccccc2C(=O)N1Cc1ccccc1 (stereo unspecified) showed an IC50 [1] of 189 µM.

With CCCN1C(=O)c2ccccc2C1(OCCS(C)(=O)=O)c1ccc(C(C)(C)C)cc1 (stereo unspecified) the IC50 [1] was 290 µM.

With CCCN1C(=O)c2ccccc2C1(OCCN1CCNC1=O)c1ccc(C(C)(C)C)cc1 (stereo unspecified) the IC50 [1] was 74.3 µM.

For NC(=O)COC1(c2ccccc2)c2ccccc2C(=O)N1Cc1ccccc1 (stereo unspecified), the IC50 [1] was greater than 500 µM.

With CC(=O)NCCNC1(c2ccccc2)c2ccccc2C(=O)N1Cc1ccccc1 (stereo unspecified) the IC50 [1] was greater than 500 µM.

CCCN1C(=O)c2ccccc2C1(OCc1cc2c(cc1[N+](=O)[O-])OCO2)c1ccc(C(C)(C)C)cc1 (stereo unspecified) gave an IC50 [1] of 70.2 µM.

Compound COC(=O)C(Cc1ccc(O)cc1)N1C(=O)c2ccccc2C1(OCCOC(C)=O)c1ccccc1 (stereo unspecified) has an IC50 [1] of 380 µM.

O=C1c2ccccc2C(N[C@@H](CO)[C@@H](O)c2ccccc2)(c2ccccc2)N1Cc1ccccc1 (stereo partly specified) gave an IC50 [1] of 85 µM.

Compound O=C1c2ccccc2C(OCc2cccc(O)c2)(c2ccccc2)N1Cc1ccccc1 (stereo unspecified) has an IC50 [1] of 58 µM.

In the case of O=Cc1ccc(COC2(c3ccccc3)c3ccccc3C(=O)N2Cc2ccccc2)o1 (stereo unspecified), the IC50 [1] is reported as 97 µM.

For CCCN1C(=O)c2ccccc2C1(OCCc1ccc(O)cc1)c1ccc(C(C)(C)C)cc1 (stereo unspecified), the IC50 [1] was 69.7 µM.

With O=C1c2ccccc2C(OCCNC(=O)C(F)(F)F)(c2ccccc2)N1Cc1ccccc1 (stereo unspecified) the IC50 [1] was 409 µM.

In the case of CCCN1C(=O)c2ccccc2C1(OCc1[nH]cnc1C)c1ccc(C(C)(C)C)cc1 (stereo unspecified), the IC50 [1] is reported as 64.3 µM.

CCCOC1(c2ccccc2)c2ccccc2C(=O)N1CCC (stereo unspecified) showed an IC50 [1] greater than 200 µM.

COC(=O)C(Cc1ccc(O)cc1)N1C(=O)c2ccccc2C1(OCCN(CCC#N)c1ccccc1)c1ccccc1 (stereo unspecified) showed an IC50 [1] of 88 µM.

Work on COc1ccc([C@@H](O)COC2(c3ccccc3)c3ccccc3C(=O)N2CCCO)cc1 (stereo partly specified) yielded an IC50 [1] of 326 µM.

In the case of O=C(NCCOC1(c2ccccc2)c2ccccc2C(=O)N1Cc1ccccc1)c1ccncc1 (stereo unspecified), the IC50 [1] is reported as 278 µM.

For C=C(C)C(=O)OCCN1C(=O)c2ccccc2C1(N[C@@H](CO)[C@@H](O)c1ccccc1)c1ccccc1 (stereo partly specified), the IC50 [1] was 103 µM.
